Measurements taken from publication PMC5780263 (Xenobiotica; the fate of foreign compounds in biological …, 2017).

Tests used:
CYP2A6 = biological target: T1, CYP2A6 (Homo sapiens, UniProt P11509); settings: previous studies, ref Shimada et al., 2016a; cited from earlier work
T1 sequence (P11509 1-494): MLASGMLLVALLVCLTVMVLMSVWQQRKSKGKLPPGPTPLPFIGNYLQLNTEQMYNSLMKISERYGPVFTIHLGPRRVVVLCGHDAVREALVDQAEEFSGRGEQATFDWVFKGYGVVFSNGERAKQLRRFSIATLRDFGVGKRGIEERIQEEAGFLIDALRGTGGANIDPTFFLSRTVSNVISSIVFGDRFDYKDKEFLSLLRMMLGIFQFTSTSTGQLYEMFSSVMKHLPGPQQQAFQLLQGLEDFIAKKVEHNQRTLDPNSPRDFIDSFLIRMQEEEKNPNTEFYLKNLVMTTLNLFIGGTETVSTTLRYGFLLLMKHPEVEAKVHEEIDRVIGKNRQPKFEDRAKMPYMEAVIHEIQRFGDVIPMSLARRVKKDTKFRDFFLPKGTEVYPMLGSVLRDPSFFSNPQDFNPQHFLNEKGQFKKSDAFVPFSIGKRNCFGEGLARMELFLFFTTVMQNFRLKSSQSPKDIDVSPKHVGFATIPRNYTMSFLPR

CYP2A13.1 = biological target: T2, CYP2A13.1 (Homo sapiens, UniProt Q16696); type: in vitro ADME; settings: 10 µM substrate, 37 °C, 20 min, b5 added, HPLC-fluorescence
T2 sequence (Q16696 31-494 limits assumed): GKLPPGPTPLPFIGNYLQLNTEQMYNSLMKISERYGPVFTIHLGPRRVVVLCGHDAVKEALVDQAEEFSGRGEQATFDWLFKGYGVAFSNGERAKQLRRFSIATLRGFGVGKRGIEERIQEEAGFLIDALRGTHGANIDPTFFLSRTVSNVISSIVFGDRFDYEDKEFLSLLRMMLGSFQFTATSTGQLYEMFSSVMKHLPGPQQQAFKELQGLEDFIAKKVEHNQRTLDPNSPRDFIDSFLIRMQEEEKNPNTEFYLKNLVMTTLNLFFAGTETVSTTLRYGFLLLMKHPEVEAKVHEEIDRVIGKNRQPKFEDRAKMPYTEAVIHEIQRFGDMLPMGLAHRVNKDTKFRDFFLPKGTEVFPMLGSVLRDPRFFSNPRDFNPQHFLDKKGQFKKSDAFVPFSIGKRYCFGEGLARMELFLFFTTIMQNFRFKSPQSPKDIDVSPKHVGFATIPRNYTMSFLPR

[1] = system: CYP1A1, 1A2, 1B1.1, 1B1.3, 2D6, 2E1, 2C9, and 3A4; assay: Spectral binding titration with other purified human P450 enzymes; settings: authors' assay conditions
CYP1A1 = biological target: T3, CYP1A1 (Homo sapiens, UniProt P04798); type: in vitro ADME; settings: 10 µM substrate, 37 °C, 20 min, HPLC-fluorescence
T3 sequence (P04798 1-512): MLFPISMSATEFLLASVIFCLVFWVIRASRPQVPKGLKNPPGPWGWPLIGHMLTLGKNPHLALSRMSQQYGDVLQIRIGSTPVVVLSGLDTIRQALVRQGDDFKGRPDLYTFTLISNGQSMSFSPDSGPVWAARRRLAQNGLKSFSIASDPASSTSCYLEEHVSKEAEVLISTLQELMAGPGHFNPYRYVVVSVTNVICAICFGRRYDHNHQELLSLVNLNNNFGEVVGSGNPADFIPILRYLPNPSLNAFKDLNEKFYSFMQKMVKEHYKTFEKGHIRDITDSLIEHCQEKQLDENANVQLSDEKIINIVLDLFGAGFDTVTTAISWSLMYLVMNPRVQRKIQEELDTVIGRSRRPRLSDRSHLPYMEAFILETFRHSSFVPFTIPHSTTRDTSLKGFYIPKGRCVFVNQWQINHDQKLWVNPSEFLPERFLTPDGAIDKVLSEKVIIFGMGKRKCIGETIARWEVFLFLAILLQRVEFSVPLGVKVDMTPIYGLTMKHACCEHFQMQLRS

CYP1B1.1 = biological target: T4, CYP1B1.1 (Homo sapiens, UniProt Q16678); type: in vitro ADME; settings: 10 µM substrate, 37 °C, 20 min, HPLC-fluorescence
T4 sequence (Q16678 1-543): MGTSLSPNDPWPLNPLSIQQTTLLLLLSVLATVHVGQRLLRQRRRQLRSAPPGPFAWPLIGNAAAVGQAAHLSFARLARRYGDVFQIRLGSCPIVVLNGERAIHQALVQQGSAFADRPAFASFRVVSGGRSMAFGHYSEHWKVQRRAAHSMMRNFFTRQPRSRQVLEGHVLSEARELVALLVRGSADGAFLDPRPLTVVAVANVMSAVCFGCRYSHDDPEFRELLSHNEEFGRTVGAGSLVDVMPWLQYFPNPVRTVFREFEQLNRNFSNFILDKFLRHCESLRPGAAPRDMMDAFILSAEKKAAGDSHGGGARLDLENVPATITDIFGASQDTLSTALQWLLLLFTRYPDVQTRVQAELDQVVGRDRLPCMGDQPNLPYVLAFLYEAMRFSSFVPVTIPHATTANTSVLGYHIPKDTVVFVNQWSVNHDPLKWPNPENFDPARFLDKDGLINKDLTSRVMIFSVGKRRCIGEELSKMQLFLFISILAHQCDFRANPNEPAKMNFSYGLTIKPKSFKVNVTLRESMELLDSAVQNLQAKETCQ

CC(=O)c1ccc2ccc3cccc4ccc1c2c34 [1-acetylpyrene]
Type I binding spectra (CYP2A6): do not show detectable Type I binding spectra

Clc1ccc2ccc3cccc4ccc1c2c34 [1-chloropyrene]
Hydroxylated products formed (CYP2A13.1): catalyzed hydroxylation at the 8- and 3-positions | Spectral changes [1]: did not show any detectable spectral changes | Hydroxylated products formed (CYP1A1): produced 8-, 6-, and 3-hydroxylated products at significant levels | Hydroxylated products formed (CYP1B1.1): only formed the 6-hydroxy product

O=[N+]([O-])c1ccc2ccc3cccc4ccc1c2c34 [1-nitropyrene]
Type I binding spectra (CYP2A6): do not show detectable Type I binding spectra

c1cc2ccc3cccc4ccc(c1)c2c34 [pyrene]
Type I binding spectra (CYP2A6): do not show detectable Type I binding spectra
